{
  "source": "patent US5843696A",
  "about": "“Bioassay for toxic substances activated by metabolic enzyme system” (priority 1995, dated 1998)",
  "key": {"[1]": {"test_system": "ATP-driven reduction of NAD+ to NADH by submitochondrial particles", "assay": "RET (reverse electron transfer) test linked to cytochrome P-450 liver microsome activation", "excerpt": "The effect of this is to drive an endergonic reduction of NAD^+ to NADH as long as there is sufficient presence of ATP. For the process to be effective, therefore, there must be a sufficient quantity of NAD^+ in the sample preparation to serve as a substrate for conversion by competent enzymes. It may also be required that other enzymes such as glutamate, or alcohol or pyruvate dehydrogenases be added from exogenous sources in the event these materials are lost by rupture of the intact mitochondria during particle preparation.\nFor a reverse electron transport assay in which NAD^+ is to be reduced to NADH, one obvious requirement of the assay medium is NAD^+ to be a substrate. To supply a source of electrons, succinate is a preferred substrate which can be oxidized by the complex II enzymes. In order to couple the donor electrons from succinate conversion to NAD^+ reduction, it is necessary to block transport of the electron flow through complex III enzymes. This can be easily accomplished by adding antimycin, a known inhibitor of the complex III enzymes. With this combination, if the mitochondrial membranes and enzymes are otherwise functional, electrons would flow from coenzyme Q back through complex I enzymes to NAD^+. Thus NAD^+ would be reduced to NADH, as long as ATP was present to energize the conversion. Thus, the initiation of the reaction can be controlled by the timing of ATP addition."}, "[2]": {"test_system": "NADH oxidase activity of submitochondrial particles (enzyme complexes I, III, and IV)", "assay": "ETr (electron transfer) test linked to cytochrome P-450 liver microsome activation", "conditions": "all tested concentrations; bovine serum albumin instead of microsomes"}, "NADH oxidation by SMP": {"test_system": "NADH oxidation by SMP", "type": "biochemical, beef", "conditions": "at the tested concentrations; no cytochrome P-450 enzymes"}},
  "data": [
    {"smiles": "Brc1ccccc1", "note": "[bromobenzine]", "values": [
      {"measurement": "inhibition relative to controls lacking the test compound", "setting": "[1]; 69 ppm, microsomes from phenobarbital-induced rats", "value": 68, "unit": "%"},
      {"measurement": "inhibition in controls containing the test compound but lacking microsomes", "setting": "[1]; 69 ppm, no microsomes", "value": 22, "unit": "%"}
    ]},
    {"smiles": "c1ccc2cc3ccccc3cc2c1", "note": "[anthracene]", "values": [
      {"measurement": "inhibition in RET test, secondary controls lacking liver microsomes", "setting": "[1]; 1 ppm, no liver microsomes", "value": "no inhibition"}
    ]},
    {"smiles": "ClC(Cl)(Cl)Cl", "note": "[carbon tetrachloride]", "values": [
      {"measurement": "inhibition of NADH oxidase activity, secondary control lacking liver microsomes", "setting": "[2]", "value": 4, "unit": "%"},
      {"measurement": "inhibition in conventional ETr protocol", "setting": "NADH oxidation by SMP", "value": "no inhibition"}
    ]}
  ]
}
